Source: US7601745B2, “Heterocyclic NF-kB inhibitors” (4SC AG, priority 2004, dated 2009)

System: A549-NF-κB-SEAP reporter cells
Assay: Inhibition of NF-κB-induced inflammation ([…] NINA Instant Assay, SEAP reporter)
Assay type: cell-based
Settings: NF-κB inflammation assay
Outline: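 Reporter cells reactivated 18 h at 37° C, pre-incubated 4.5 h with compound (0.01 up to 100 μM), then stimulated with 2 ng/ml TNF-α for 22 h. SEAP measured by CSPD chemiluminescence (40 min) after endogenous phosphatase inactivation; EC50 fitted from quadruplicates.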

Row | SMILES | Biological activity (inhibition in the NF-κB inflammation assay)
1 | N=C(NC(=O)c1csc(NC(=O)c2ccccc2C2CCCCC2)n1)Nc1nc2ccccc2[nH]1 [compound 45] | +++ (“+++” stands for 90-100% inhibition)
2 | Cc1cc2nc(NC(=O)c3csc(NC(=O)c4ccccc4OC(F)(F)F)n3)[nH]c2cc1C [compound 25] | +++ (“+++” stands for 90-100% inhibition)
3 | Cc1cc2nc(NC(=O)c3coc(NC(=O)c4ccccc4OC(F)(F)F)n3)[nH]c2cc1C [compound 40] | +++ (“+++” stands for 90-100% inhibition)
4 | Cn1c(NC(=O)c2csc(NC(=O)c3ccccc3OC(F)(F)F)n2)nc2ccccc21 [compound 46] | +++ (“+++” stands for 90-100% inhibition)
5 | N=C(NC(=O)c1csc(N2CCOCC2)n1)Nc1nc2ccccc2[nH]1 [compound 49] | +++ (“+++” stands for 90-100% inhibition)

Same assay, conditions: compounds of formula (I); TNF-α stimulated reporter cells; test concentration not given

Row | SMILES | Biological activity (NF-κB inflammation assay, inhibition)
6 | O=C(c1csc(C2CCN(S(=O)(=O)c3c(Cl)nc4sccn34)CC2)n1)N1CCN(c2cccc(C(F)(F)F)c2)CC1 [compound 197] | + (“+” stands for 50-80% inhibition)
7 | COc1ccccc1N1CCC(c2nc(C(=O)N3CCN(c4cccc(C(F)(F)F)c4)CC3)cs2)CC1 [compound 158] | + (“+” stands for 50-80% inhibition)
8 | O=C(c1csc(C2CCN(Cc3ccccc3)CC2)n1)N1CCN(c2cccc(C(F)(F)F)c2)CC1 [compound 177] | + (“+” stands for 50-80% inhibition)
9 | O=C(c1csc(C2CCN(Cc3ccccc3OC(F)(F)F)CC2)n1)N1CCN(c2cccc(C(F)(F)F)c2)CC1 [compound 109] | + (“+” stands for 50-80% inhibition)
10 | O=C(c1csc(C2CCN(C(=O)c3cc4ccccc4s3)CC2)n1)N1CCN(c2cccc(C(F)(F)F)c2)CC1 [compound 213] | ++ (“++” means 80-90%)
11 | O=C(c1csc(C2CCN(C(=O)c3ccccc3OC(F)(F)F)CC2)n1)N(Cc1ccc(Cl)cc1)Cc1ccc(Cl)cc1 [compound 110] | + (“+” stands for 50-80% inhibition)
12 | O=C(c1csc(C2CCN(C(=O)c3ccccc3OC(F)(F)F)CC2)n1)N1CCN(c2ncnc3nc[nH]c23)CC1 [compound 129] | + (“+” stands for 50-80% inhibition)
13 | O=C(O)C1CCCCC1C(=O)N1CCC(c2nc(C(=O)N3CCN(c4cccc(C(F)(F)F)c4)CC3)cs2)CC1 (stereo not drawn) [compound 189] | + (“+” stands for 50-80% inhibition)
14 | O=C(c1csc(C2CCN(Cc3ccc(C(F)(F)F)cc3)CC2)n1)N1CCN(c2cccc(C(F)(F)F)c2)CC1 [compound 169] | + (“+” stands for 50-80% inhibition)
15 | N#Cc1ccc(CN2CCC(c3nc(C(=O)N4CCN(c5cccc(C(F)(F)F)c5)CC4)cs3)CC2)cc1 [compound 166] | + (“+” stands for 50-80% inhibition)
16 | O=C(c1csc(C2CCN(C(=O)c3ccco3)CC2)n1)N1CCN(c2cccc(C(F)(F)F)c2)CC1 [compound 230] | + (“+” stands for 50-80% inhibition)
17 | O=C(c1csc(C2CCN(Cc3ccc(F)cc3)CC2)n1)N1CCN(c2cccc(C(F)(F)F)c2)CC1 [compound 170] | + (“+” stands for 50-80% inhibition)
18 | O=C(O)N1CCC(c2nc(C(=O)N3CCN(c4cccc(C(F)(F)F)c4)CC3)cs2)CC1 [compound 113] | + (“+” stands for 50-80% inhibition)
19 | COc1cccc(CN2CCC(c3nc(C(=O)N4CCN(c5cccc(C(F)(F)F)c5)CC4)cs3)CC2)c1 [compound 173] | + (“+” stands for 50-80% inhibition)
20 | CN1CCOc2cc(C(=O)N3CCC(c4nc(C(=O)N5CCN(c6cccc(C(F)(F)F)c6)CC5)cs4)CC3)ccc21 [compound 210] | ++ (“++” means 80-90%)
21 | O=C(O)C=CC(=O)N1CCC(c2nc(C(=O)N3CCN(c4cccc(C(F)(F)F)c4)CC3)cs2)CC1 [compound 191] | + (“+” stands for 50-80% inhibition)
22 | O=C(c1csc(C2CCN(Cc3ccccc3Br)CC2)n1)N1CCN(c2cccc(C(F)(F)F)c2)CC1 [compound 165] | + (“+” stands for 50-80% inhibition)
23 | COc1cc(N2CCC(c3nc(C(=O)N4CCN(c5cccc(C(F)(F)F)c5)CC4)cs3)CC2)nc(OC)n1 [compound 164] | ++ (“++” means 80-90%)
24 | CSc1nccc(N2CCN(C(=O)c3csc(C4CCN(C(=O)c5ccccc5OC(F)(F)F)CC4)n3)CC2)n1 [compound 124] | + (“+” stands for 50-80% inhibition)
25 | CS(=O)(=O)c1ccc(N2CCC(c3nc(C(=O)N4CCN(c5cccc(C(F)(F)F)c5)CC4)cs3)CC2)cc1 [compound 117] | + (“+” stands for 50-80% inhibition)
26 | O=C(c1csc(C2CCN(c3ccc4c(c3)OCCO4)CC2)n1)N1CCN(c2cccc(C(F)(F)F)c2)CC1 [compound 157] | + (“+” stands for 50-80% inhibition)
27 | Cc1noc(C)c1S(=O)(=O)N1CCC(c2nc(C(=O)N3CCN(c4cccc(C(F)(F)F)c4)CC3)cs2)CC1 [compound 192] | + (“+” stands for 50-80% inhibition)
28 | COc1ccccc1N1CCN(C(=O)c2csc(C3CCN(C(=O)Cc4ccc(F)cc4)CC3)n2)CC1 [compound 229] | + (“+” stands for 50-80% inhibition)
29 | COc1cccc(C(=O)N2CCC(c3nc(C(=O)N4CCN(c5cccc(C(F)(F)F)c5)CC4)cs3)CC2)c1 [compound 209] | + (“+” stands for 50-80% inhibition)
30 | O=C(Cc1ccc(F)cc1)N1CCC(c2nc(C(=O)N3CCC(n4nnc5ccccc54)CC3)cs2)CC1 [compound 182] | + (“+” stands for 50-80% inhibition)

Same assay, conditions: compounds of formula (II); TNF-α stimulated reporter cells; test concentration not given

Row | SMILES | Biological activity (NF-κB inflammation assay, inhibition)
31 | O=C(c1csc(N2CCN(Cc3ccccc3)CC2)n1)N1CCN(C(c2ccccc2)c2ccccc2)CC1 [compound 71] | +++ (“+++” stands for 90-100% inhibition)
32 | O=C(c1ccc(C(F)(F)F)c(F)c1)N1CCN(c2nc(C(=O)N3CCN(c4cccc(C(F)(F)F)c4)CC3)cs2)CC1 [compound 60] | +++ (“+++” stands for 90-100% inhibition)
33 | O=C(Nc1nc(C(=O)N2CCN(c3ccc(Cl)c(Cl)c3)CC2)cs1)c1ccccc1OC(F)(F)F [compound 41] | +++ (“+++” stands for 90-100% inhibition)
34 | O=C(Nc1nc(C(=O)N2CCN(c3cccc(C(F)(F)F)c3)CC2)cs1)c1ccccc1OC(F)(F)F [compound 32] | +++ (“+++” stands for 90-100% inhibition)
35 | N#Cc1ccc(C(=O)NCC2CCN(c3nc(C(=O)N4CCN(c5cccc(C(F)(F)F)c5)CC4)cs3)CC2)cc1 [compound 102] | + (“+” stands for 50-80% inhibition)
36 | O=C(c1csc(N2CCNCC2)n1)N1CCN(c2cccc(C(F)(F)F)c2)CC1 [compound 64] | + (“+” stands for 50-80% inhibition)

Same assay, conditions: compounds of formula (Ia); TNF-α stimulated reporter cells; test concentration not given

Row | SMILES | Biological activity (NF-κB inflammation assay, inhibition)
37 | CC(C)NC(=O)N1CCC(c2nc(C(=O)N3CCN(c4cccc(C(F)(F)F)c4)CC3)cs2)CC1 [compound 78] | + (“+” stands for 50-80% inhibition)
38 | COc1cc(NC(=O)N2CCC(c3nc(C(=O)N4CCN(c5cccc(C(F)(F)F)c5)CC4)cs3)CC2)cc(OC)c1OC [compound 81] | ++ (“++” means 80-90%)

Same assay, conditions: compounds of formula (Ic); TNF-α stimulated reporter cells; test concentration not given

Row | SMILES | Biological activity (NF-κB inflammation assay, inhibition)
39 | COc1cc2c(cc1OC)CN(C(=O)c1csc(C3CCN(C(=O)Cc4ccc(F)cc4)CC3)n1)CC2 [compound 161] | + (“+” stands for 50-80% inhibition)
